Test results published in PubChem BioAssay (NCI).
Where “and” joins values, the source holds several entries; their conditions need not be identical. Equal entries are not always repeated.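 Dose response: 5 concentrations. Exposure: 48 h. Format: 96-well plates. Endpoint: linear interpolation; highest concentration if not reached. Here, GI50 denotes the concentration required for 50% inhibition of growth. TGI: concentration producing complete growth inhibition.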

Experiments:
Test in all cases: NCI-60 cell line screen, 48 h
[1] = tested on: A498 renal
[2] = tested on: SK-OV-3 ovarian
[3] = tested on: A549 NSCLC
[4] = tested on: PC-3 prostate
[5] = tested on: MALME-3M melanoma
[6] = tested on: SW-620 colon
[7] = tested on: HS 578T breast
[8] = tested on: NCI/ADR-RES ovarian
[9] = tested on: UACC-62 melanoma
[10] = tested on: SF-539 CNS
[11] = tested on: MOLT-4 leukemia
[12] = tested on: K-562 leukemia
[13] = tested on: HCC-2998 colon
[14] = tested on: HT29 colon
[15] = tested on: T-47D breast
[16] = tested on: DU-145 prostate
[17] = tested on: NCI-H226 lung
[18] = tested on: BT-549 breast
[19] = tested on: OVCAR-8 ovarian
[20] = tested on: MDA-MB-435
[21] = tested on: HL-60(TB) leukemia
[22] = tested on: TK-10 renal
[23] = tested on: NCI-H522 lung
[24] = tested on: SNB-19 CNS
[25] = tested on: SR leukemia
[26] = tested on: SN12C renal
[27] = tested on: CCRF-CEM leukemia
[28] = tested on: SNB-75 CNS
[29] = tested on: HCT-116 colon
[30] = tested on: MDA-MB-231 breast
[31] = tested on: SF-268 CNS
[32] = tested on: HOP-92 NSCLC
[33] = tested on: U251 CNS
[34] = tested on: COLO 205 colon
[35] = tested on: SK-MEL-28 melanoma
[36] = tested on: HCT-15 colon
[37] = tested on: SK-MEL-2 melanoma
[38] = tested on: NCI-H460 lung
[39] = tested on: M14 melanoma
[40] = tested on: SF-295 CNS
[41] = tested on: CAKI-1 renal
[42] = tested on: OVCAR-3 ovarian
[43] = tested on: LOX IMVI melanoma
[44] = tested on: KM12 colon
[45] = tested on: ACHN renal
[46] = tested on: EKVX NSCLC
[47] = tested on: UACC-257 melanoma
[48] = tested on: UO-31 renal
[49] = tested on: MCF7 breast
[50] = tested on: SK-MEL-5 melanoma
[51] = tested on: OVCAR-4 ovarian
[52] = tested on: HOP-62 NSCLC
[53] = tested on: 786-0 renal
[54] = tested on: NCI-H23 lung
[55] = tested on: RPMI-8226 leukemia
[56] = tested on: IGROV1 ovarian
[57] = tested on: OVCAR-5 ovarian
[58] = tested on: RXF 393 renal

Compound: CN(C)C/C=C/C(=O)Nc1cc2c(Nc3ccc(F)c(Cl)c3)ncnc2cc1O[C@H]1CCOC1
- GI50 [1]: 0.155 µM and 0.106 µM
- TGI [1]: 2.55 µM and 2.3 µM
- GI50 [2]: < 0.01 µM and 0.00185 µM
- TGI [2]: 0.322 µM and 0.327 µM
- GI50 [3]: 1.48 µM and 1.6 µM
- TGI [3]: 7.55 µM and > 10 µM
- GI50 [4]: 3.19 µM and 3.26 µM
- TGI [4]: 12.8 µM and > 10 µM
- GI50 [5]: 2.1 µM and 1.22 µM
- TGI [5]: 4.16 µM and 3.95 µM
- GI50 [6]: 1.38 µM and 1.5 µM
- TGI [6]: 4.63 µM and > 7.89 µM
- GI50 [7]: 2.4 µM and 1.62 µM
- TGI [7]: 13.3 µM and > 8.16 µM
- GI50 [8]: 2.27 µM and 1.92 µM
- TGI [8]: 14.8 µM and > 10 µM
- GI50 [9]: 2.39 µM and 3.28 µM
- TGI [9]: 7.49 µM and > 10 µM
- GI50 [10]: 1.5 µM and 2.59 µM
- TGI [10]: 4.68 µM and 9.71 µM
- GI50 [11]: 2.43 µM and 1.45 µM
- TGI [11]: 11.3 µM and 7.24 µM
- GI50 [12]: 3.17 µM and 1.97 µM
- TGI [12]: 14.1 µM and > 10 µM
- GI50 [13]: 1.14 µM and 1.58 µM
- TGI [13]: 3.14 µM and > 9.22 µM
- GI50 [14]: 0.815 µM and 0.756 µM
- TGI [14]: 3.49 µM and > 10 µM
- TGI [15]: 15.9 µM and > 10 µM
- GI50 [16]: 0.884 µM and 0.244 µM
- TGI [16]: 12.7 µM and > 10 µM
- GI50 [17]: 2.04 µM and 5.25 µM
- TGI [17]: 8.45 µM and > 10 µM
- GI50 [18]: 2.28 µM and 2.18 µM
- TGI [18]: 9.6 µM and > 10 µM
- GI50 [19]: 1.36 µM and 1.88 µM
- TGI [19]: 5.37 µM and > 6.85 µM
- GI50 [20]: 0.603 µM and 0.882 µM
- TGI [20]: 7.37 µM and > 5.68 µM
- GI50 [21]: 1.45 µM and 0.599 µM
- TGI [21]: 5.03 µM and 3.75 µM
- GI50 [22]: < 0.01 µM and 0.00136 µM
- GI50 [23]: 0.0189 µM and 0.00532 µM
- TGI [23]: 1.15 µM and 2.74 µM
- GI50 [24]: 2.76 µM and 2.42 µM
- TGI [24]: 15.7 µM and > 10 µM
- GI50 [25]: 3.46 µM and 1.26 µM
- TGI [25]: 13.2 µM and 6.5 µM
- GI50 [26]: 1.46 µM and 0.576 µM
- TGI [26]: 14.8 µM and > 10 µM
- GI50 [27]: 1.79 µM and 1.53 µM
- TGI [27]: 9.17 µM and > 7.56 µM
- GI50 [28]: 1.48 µM and 0.983 µM
- TGI [28]: 10.7 µM and 8.33 µM
- GI50 [29]: 0.448 µM and 0.679 µM
- TGI [29]: 1.93 µM and > 5.87 µM
- GI50 [30]: 1.2 µM and 0.806 µM
- TGI [30]: 7.06 µM and 4.75 µM
- GI50 [31]: 2.03 µM and 1.82 µM
- TGI [31]: 8.58 µM and > 10 µM
- GI50 [32]: 0.227 µM
- TGI [32]: 4.44 µM
- GI50 [33]: 0.58 µM and 1.35 µM
- TGI [33]: 2.96 µM and > 10 µM
- GI50 [34]: 0.998 µM and 0.887 µM
- TGI [34]: 3.09 µM and > 5.59 µM
- GI50 [35]: 2.29 µM and 2.45 µM
- TGI [35]: 6.8 µM and > 10 µM
- GI50 [36]: 1.59 µM and 1.33 µM
- TGI [36]: 12.1 µM and > 9.47 µM
- GI50 [37]: 1.38 µM and 1.51 µM
- TGI [37]: 2.93 µM and 4.13 µM
- GI50 [38]: 2.87 µM and 3.46 µM
- TGI [38]: 11.7 µM and > 10 µM
- GI50 [39]: 1.39 µM and 1.42 µM
- TGI [39]: 2.99 µM and 6.61 µM
- GI50 [40]: 4.93 µM and 3.32 µM
- TGI [40]: 20.9 µM and > 10 µM
- GI50 [41]: 0.0407 µM and 0.208 µM
- TGI [41]: 8.39 µM and > 10 µM
- GI50 [42]: 0.232 µM and 0.229 µM
- TGI [42]: 2.54 µM and > 4.93 µM
- GI50 [43]: 1.02 µM and 1.38 µM
- TGI [43]: 3.62 µM and > 5.51 µM
- GI50 [44]: 1.25 µM and 1.99 µM
- TGI [44]: 11.3 µM and > 10 µM
- GI50 [45]: < 0.01 µM and 0.00252 µM
- TGI [45]: 13.1 µM and > 10 µM
- GI50 [46]: < 0.01 µM and 0.003 µM
- TGI [46]: 11.3 µM and > 10 µM
- GI50 [47]: 1.46 µM and 3.34 µM
- TGI [47]: 3.09 µM and > 10 µM
- GI50 [48]: 0.762 µM and 0.322 µM
- TGI [48]: 16.4 µM and > 10 µM
- GI50 [49]: 2.23 µM and 2.12 µM
- TGI [49]: 9.14 µM and > 10 µM
- GI50 [50]: 1.31 µM and 2.11 µM
- TGI [50]: 2.75 µM and > 5.59 µM
- GI50 [51]: 0.915 µM and 1.27 µM
- TGI [51]: 12.3 µM and > 10 µM
- GI50 [52]: 2.49 µM and 3.38 µM
- TGI [52]: 6.86 µM and > 10 µM
- GI50 [53]: 2.3 µM and 1.79 µM
- TGI [53]: 13.9 µM and > 10 µM
- GI50 [54]: 1.96 µM and 2.49 µM
- TGI [54]: 8.66 µM and > 10 µM
- GI50 [55]: 1.76 µM and 2.14 µM
- TGI [55]: 5.39 µM and > 6.56 µM
- TGI [56]: 12.5 µM and 2.35 µM
- GI50 [57]: 0.843 µM and 0.345 µM
- TGI [57]: 13.3 µM and > 10 µM
- GI50 [58]: 1.17 µM and 0.514 µM
- TGI [58]: 6.79 µM and 4.13 µM
